In PubChem BioAssay (NCI):
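Values below derive from 48-hour exposures of cells grown in 96-well plates, with endpoints linearly interpolated between the two concentrations bracketing the appropriate inhibition level. At the GI50, growth is halved. TGI denotes the concentration required for complete inhibition of growth.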

Legend:
Test in all cases: DTP human tumour cell line panel, 48 h; in the data active = GI50 below about 0.43 µM; inactive = the rest
[1] = tested on: CAKI-1 renal
[2] = tested on: RPMI-8226 leukemia
[3] = tested on: PC-3 prostate
[4] = tested on: HOP-92 NSCLC
[5] = tested on: HS 578T breast
[6] = tested on: SN12C renal
[7] = tested on: A498 renal
[8] = tested on: DU-145 prostate
[9] = tested on: A549 NSCLC
[10] = tested on: SF-268 CNS
[11] = tested on: RXF 393 renal
[12] = tested on: HL-60(TB) leukemia
[13] = tested on: SF-539 CNS
[14] = tested on: LOX IMVI melanoma
[15] = tested on: SF-295 CNS
[16] = tested on: NCI-H226 lung
[17] = tested on: CCRF-CEM leukemia
[18] = tested on: HCC-2998 colon
[19] = tested on: MDA-MB-435
[20] = tested on: MOLT-4 leukemia
[21] = tested on: T-47D breast
[22] = tested on: UACC-257 melanoma
[23] = tested on: HCT-15 colon
[24] = tested on: UACC-62 melanoma
[25] = tested on: MDA-N
[26] = tested on: NCI-H522 lung
[27] = tested on: NCI/ADR-RES ovarian
[28] = tested on: SK-MEL-5 melanoma
[29] = tested on: HCT-116 colon
[30] = tested on: NCI-H460 lung
[31] = tested on: M14 melanoma
[32] = tested on: HOP-62 NSCLC
[33] = tested on: SK-OV-3 ovarian
[34] = tested on: BT-549 breast
[35] = tested on: K-562 leukemia
[36] = tested on: SK-MEL-28 melanoma
[37] = tested on: EKVX NSCLC
[38] = tested on: TK-10 renal
[39] = tested on: OVCAR-8 ovarian
[40] = tested on: SNB-19 CNS
[41] = tested on: MDA-MB-231 breast
[42] = tested on: SK-MEL-2 melanoma
[43] = tested on: OVCAR-3 ovarian
[44] = tested on: SW-620 colon
[45] = tested on: KM12 colon
[46] = tested on: MALME-3M melanoma
[47] = tested on: IGROV1 ovarian
[48] = tested on: ACHN renal
[49] = tested on: OVCAR-5 ovarian
[50] = tested on: UO-31 renal
[51] = tested on: MCF7 breast
[52] = tested on: HT29 colon
[53] = tested on: U251 CNS
[54] = tested on: NCI-H23 lung
[55] = tested on: OVCAR-4 ovarian
[56] = tested on: 786-0 renal
[57] = tested on: COLO 205 colon
[58] = tested on: SNB-75 CNS

C=CCNC(=O)CN(CC(=O)OC)C1CCCCC1N(CC(=O)OC)CC(=O)OC (stereo unspecified)
> 100 µM: TGI [1] | TGI [2] | TGI [3] | TGI [4] | TGI [5] | TGI [6] | TGI [7] | TGI [8] | TGI [9] | TGI [10] | TGI [11] | TGI [12] | TGI [13] | TGI [14] | TGI [15] | TGI [16] | TGI [17] | TGI [18] | TGI [19] | TGI [20] | TGI [21] | TGI [22] | TGI [23] | TGI [24] | TGI [25] | TGI [26] | TGI [27] | TGI [28] | TGI [29] | TGI [30] | TGI [31] | TGI [32] | TGI [33] | TGI [34] | TGI [35] | TGI [36] | TGI [37] | TGI [38] | TGI [39] | TGI [40] | TGI [41] | TGI [42] | TGI [43] | TGI [44] | TGI [45] | TGI [46] | TGI [47] | TGI [48] | TGI [49] | TGI [50] | TGI [51] | TGI [52] | TGI [53] | TGI [54]

CN1CCCC1c1cccnc1.O=C(O)c1ccccc1O.O=C([O-])c1ccccc1[OH2+].O=C([O-])c1ccccc1[OH2+].[Mn+2] (stereo unspecified)
inactive: GI50 [1] > 100 µM | GI50 [2] 77.9 µM | GI50 [3] 58.1 µM | GI50 [4] > 100 µM | GI50 [5] > 100 µM | GI50 [6] > 100 µM | GI50 [7] > 100 µM | GI50 [8] > 100 µM | GI50 [9] > 100 µM | GI50 [10] 31.6 µM | GI50 [11] > 100 µM | GI50 [12] > 100 µM | GI50 [55] > 100 µM | GI50 [14] > 100 µM | GI50 [15] > 100 µM | GI50 [16] > 100 µM | GI50 [17] 24.8 µM | GI50 [19] > 100 µM | GI50 [20] 64.9 µM | GI50 [21] > 100 µM | GI50 [56] > 100 µM | GI50 [22] 56.7 µM | GI50 [23] > 100 µM | GI50 [24] > 100 µM | GI50 [25] > 100 µM | GI50 [26] 16.7 µM | GI50 [27] > 100 µM | GI50 [28] > 100 µM | GI50 [29] > 100 µM | GI50 [31] > 100 µM | GI50 [32] > 100 µM | GI50 [33] > 100 µM | GI50 [34] 54.3 µM | GI50 [35] > 100 µM | GI50 [36] > 100 µM | GI50 [37] > 100 µM | GI50 [38] > 100 µM | GI50 [39] > 100 µM | GI50 [40] > 100 µM | GI50 [41] > 100 µM | GI50 [42] 54.3 µM | GI50 [43] 21.3 µM | GI50 [44] 64.3 µM | GI50 [45] > 100 µM | GI50 [46] 33.1 µM | GI50 [57] > 100 µM | GI50 [47] > 100 µM | GI50 [48] > 100 µM | GI50 [49] 73.1 µM | GI50 [58] > 100 µM | GI50 [50] > 100 µM | GI50 [51] 40.3 µM | GI50 [52] 98 µM | GI50 [53] > 100 µM | GI50 [54] > 100 µM
76.6 µM: TGI [46]
70.5 µM: TGI [43]
97.8 µM: TGI [17]
> 100 µM: TGI [1] | TGI [2] | TGI [3] | TGI [4] | TGI [5] | TGI [6] | TGI [7] | TGI [8] | TGI [9] | TGI [10] | TGI [11] | TGI [12] | TGI [55] | TGI [14] | TGI [15] | TGI [16] | TGI [19] | TGI [20] | TGI [21] | TGI [56] | TGI [22] | TGI [23] | TGI [24] | TGI [25] | TGI [27] | TGI [28] | TGI [29] | TGI [31] | TGI [32] | TGI [33] | TGI [34] | TGI [35] | TGI [36] | TGI [37] | TGI [38] | TGI [39] | TGI [40] | TGI [41] | TGI [42] | TGI [44] | TGI [45] | TGI [57] | TGI [47] | TGI [48] | TGI [49] | TGI [58] | TGI [50] | TGI [51] | TGI [52] | TGI [53] | TGI [54]
36.4 µM: TGI [26]

N#Cc1c(-c2ccccc2)cc(-c2ccccc2)n(C2OCC(O)C(O)C2O)c1=S (stereo unspecified)
16.1 µM: TGI [24]
75.4 µM: TGI [22]
56.9 µM: TGI [57]
43.7 µM: TGI [39]
27.3 µM: TGI [33]
77.1 µM: TGI [36]
93.1 µM: TGI [17]
29.4 µM: TGI [3]
45.2 µM: TGI [19]
53.3 µM: TGI [31]
58.5 µM: TGI [49]
81 µM: TGI [46]
39 µM: TGI [15]
60.6 µM: TGI [23]
37.9 µM: TGI [26]
38.1 µM: TGI [48]
43.2 µM: TGI [43]
23.9 µM: TGI [41]
28.4 µM: TGI [29]
62.3 µM: TGI [42]
80 µM: TGI [10] | TGI [52]
46.4 µM: TGI [54]
35.6 µM: TGI [11]
33.5 µM: TGI [44] | TGI [47]
27.2 µM: TGI [45]
90.2 µM: TGI [37]
44 µM: TGI [34]
35.9 µM: TGI [16]
41.7 µM: TGI [51]
34.7 µM: TGI [2]
26.6 µM: TGI [21]
89.7 µM: TGI [40]
54 µM: TGI [50]
49.1 µM: TGI [56]
58.2 µM: TGI [38]
27.9 µM: TGI [28]
66.3 µM: TGI [58]
57.4 µM: TGI [9]
86.5 µM: TGI [27]
61.5 µM: TGI [1]
49.3 µM: TGI [8]
64.2 µM: TGI [7]
30.4 µM: TGI [53]
31.9 µM: TGI [14]
64.7 µM: TGI [32]
> 100 µM: TGI [5] | TGI [20] | TGI [35]
55 µM: TGI [25]
70.6 µM: TGI [55] | TGI [30]
41.9 µM: TGI [13]

CCCCCCCCCCCCC(O)C(=O)O (stereo unspecified)
> 100 µM: TGI [1] | TGI [2] | TGI [3] | TGI [4] | TGI [5] | TGI [6] | TGI [7] | TGI [8] | TGI [9] | TGI [12] | TGI [55] | TGI [13] | TGI [14] | TGI [15] | TGI [17] | TGI [18] | TGI [19] | TGI [20] | TGI [21] | TGI [56] | TGI [22] | TGI [23] | TGI [24] | TGI [25] | TGI [26] | TGI [27] | TGI [28] | TGI [29] | TGI [30] | TGI [31] | TGI [32] | TGI [33] | TGI [34] | TGI [35] | TGI [38] | TGI [39] | TGI [40] | TGI [41] | TGI [42] | TGI [43] | TGI [44] | TGI [45] | TGI [46] | TGI [57] | TGI [47] | TGI [48] | TGI [49] | TGI [58] | TGI [50] | TGI [51] | TGI [52] | TGI [53] | TGI [54]

CCOP(=O)(OCC)C(Cc1ccc(Cl)cc1)NS(=O)(=O)c1ccc(C)cc1 (stereo unspecified)
> 100 µM: TGI [1] | TGI [2] | TGI [3] | TGI [4] | TGI [5] | TGI [6] | TGI [7] | TGI [8] | TGI [9] | TGI [10] | TGI [11] | TGI [12] | TGI [55] | TGI [13] | TGI [14] | TGI [15] | TGI [17] | TGI [18] | TGI [19] | TGI [20] | TGI [21] | TGI [56] | TGI [22] | TGI [23] | TGI [24] | TGI [25] | TGI [26] | TGI [27] | TGI [28] | TGI [30] | TGI [31] | TGI [32] | TGI [33] | TGI [34] | TGI [35] | TGI [36] | TGI [37] | TGI [38] | TGI [39] | TGI [40] | TGI [41] | TGI [42] | TGI [43] | TGI [44] | TGI [45] | TGI [46] | TGI [57] | TGI [47] | TGI [48] | TGI [49] | TGI [51] | TGI [52] | TGI [53] | TGI [54]

Cc1cn(C2CC(O)C(Cn3nncc3Cn3ncc(=O)[nH]c3=O)O2)c(=O)[nH]c1=O (stereo unspecified)
> 100 µM: TGI [1] | TGI [2] | TGI [3] | TGI [4] | TGI [5] | TGI [6] | TGI [7] | TGI [8] | TGI [9] | TGI [10] | TGI [11] | TGI [55] | TGI [13] | TGI [14] | TGI [15] | TGI [16] | TGI [17] | TGI [18] | TGI [19] | TGI [20] | TGI [21] | TGI [22] | TGI [23] | TGI [24] | TGI [25] | TGI [27] | TGI [28] | TGI [29] | TGI [31] | TGI [32] | TGI [33] | TGI [34] | TGI [36] | TGI [37] | TGI [38] | TGI [39] | TGI [40] | TGI [41] | TGI [42] | TGI [43] | TGI [44] | TGI [45] | TGI [46] | TGI [57] | TGI [47] | TGI [48] | TGI [49] | TGI [50] | TGI [51] | TGI [53] | TGI [54]
